One series deals with T1, human TRPV3 (Homo sapiens, UniProt Q8NET8).
T1 construct: expressed in transfected cells
T1 sequence (Q8NET8 1-790): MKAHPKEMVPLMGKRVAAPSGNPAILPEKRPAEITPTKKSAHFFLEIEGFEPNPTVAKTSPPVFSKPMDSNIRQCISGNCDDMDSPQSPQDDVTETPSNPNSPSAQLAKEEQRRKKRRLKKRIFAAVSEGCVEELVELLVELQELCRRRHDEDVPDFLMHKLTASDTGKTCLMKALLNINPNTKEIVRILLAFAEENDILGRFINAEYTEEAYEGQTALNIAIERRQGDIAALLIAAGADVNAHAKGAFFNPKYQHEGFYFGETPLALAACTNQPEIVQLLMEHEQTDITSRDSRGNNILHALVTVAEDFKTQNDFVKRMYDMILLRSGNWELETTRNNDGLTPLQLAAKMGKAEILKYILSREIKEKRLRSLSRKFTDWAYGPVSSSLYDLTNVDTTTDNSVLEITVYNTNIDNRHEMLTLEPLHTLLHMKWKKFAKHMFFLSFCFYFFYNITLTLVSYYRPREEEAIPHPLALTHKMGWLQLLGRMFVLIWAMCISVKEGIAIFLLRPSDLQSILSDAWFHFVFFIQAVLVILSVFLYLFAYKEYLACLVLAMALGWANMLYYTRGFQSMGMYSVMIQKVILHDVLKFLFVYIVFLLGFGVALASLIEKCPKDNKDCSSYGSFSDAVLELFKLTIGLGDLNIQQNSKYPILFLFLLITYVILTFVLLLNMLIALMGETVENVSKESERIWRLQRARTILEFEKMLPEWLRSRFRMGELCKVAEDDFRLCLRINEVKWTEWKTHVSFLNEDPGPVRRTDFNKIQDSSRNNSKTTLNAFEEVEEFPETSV
The experiment in a line: In vitro antagonism of recombinant human TRPV3 activation (FLIPR Tetra calcium assay). The format is cell-based. As to conditions: HEK293 cells stably expressing human TRPV3, agonist 2-APB at 80 μM. An outline of the steps: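 Calcium flux read over a 10 min run: compound added at 10 s to Calcium-4-loaded human TRPV3-HEK293 cells, agonist 2-APB (80 μM, its EC80) after 3 min. IC50 derived from peak-minus-baseline signal as percentage of uninhibited 2-APB response, typically averaged over at least two runs.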

Series [1] can be described thus: In vitro rat microsomal stability assay. The format is in vitro ADME, rat (Sprague-Dawley). The following applies: for RAT MICROSOMAL STABILITY (% REMAINING AFTER 30 MINUTES): Sprague-Dawley, microsomes, 0.5 h, 0.5 μM, pH 7.4. An outline of the steps:
(§1)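 Compound incubated at 37 °C with NADPH-supplemented liver microsomes, either human or from Sprague-Dawley rat, to assess metabolic stability.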

Series [2] is described as follows: In vitro human microsomal stability assay. It is filed as in vitro ADME. The following applies: for HUMAN MICROSOMAL STABILITY (% REMAINING AFTER 30 MINUTES): microsomes, 0.5 h, 0.5 μM, pH 7.4. The gist of the method:
as §1

The mark [3] stands for this setting: actual measured value shown parenthetically, in most cases average of at least two runs, read-out: IC50.
[4] abbreviates: reported range, read-out: IC50 (range class).

Where two headings read alike, the source gives them in different places.

Consider `O[C@H](c1ccccn1)[C@@]1(c2ccc(Cl)c(Cl)c2)CCO1` [Example 135, (R)-[(2S)-2-(3,4-dichlorophenyl)oxetan-2-yl](pyridin-2-yl)methanol], for which the IC50 on human TRPV3 (setting [3]) worked out at 1.01 µM. Besides, the “RAT MICROSOMAL STABILITY (% REMAINING AFTER 30 MINUTES)” value in series [1] is recorded as 3.4%. The “HUMAN MICROSOMAL STABILITY (% REMAINING AFTER 30 MINUTES)” value in series [2] is 33%.
`OC1CC(c2ccc(OC(F)(F)F)cc2)(C(O)c2ccccn2)C1` (single isomer, unassigned) [Example 131]: the results for the IC50 at human TRPV3 (setting [3]) and on human TRPV3 (setting [4]) were 0.82 µM and 1.1 to 5 µM, respectively. The “RAT MICROSOMAL STABILITY (% REMAINING AFTER 30 MINUTES)” value in series [1] was found to be 50%. Also, in series [2], the “HUMAN MICROSOMAL STABILITY (% REMAINING AFTER 30 MINUTES)” value is given as over 85%.
For `CC(C)(C)OC(=O)N1CC(c2ccc(C(F)(F)F)cc2)(C(O)c2ccccn2)C1` (stereo not shown) [Example 153, tert-butyl 3-[hydroxy(pyridin-2-yl)methyl]-3-[4-(trifluoromethyl)phenyl]-azetidine-1-carboxylate], the IC50 on human TRPV3 (setting [3]) came out at 8.01 µM. Besides, the “RAT MICROSOMAL STABILITY (% REMAINING AFTER 30 MINUTES)” value in series [1] worked out at 21%. For the same compound, the “HUMAN MICROSOMAL STABILITY (% REMAINING AFTER 30 MINUTES)” value in series [2] came to 49%.
As to `OC(c1ccccn1)C1(C2CCCc3ccccc32)CCC1` (stereo not shown) [Example 56, pyridin-2-yl[1-(1,2,3,4-tetrahydronaphthalen-1-yl)cyclobutyl]methanol], on human TRPV3 (setting [3]), the IC50 was 1.07 µM. Besides, in series [1], the “RAT MICROSOMAL STABILITY (% REMAINING AFTER 30 MINUTES)” value was determined as 1.1%. In addition, the “HUMAN MICROSOMAL STABILITY (% REMAINING AFTER 30 MINUTES)” value in series [2] worked out at 0.42%.
The corresponding values for `O[C@H](c1ccccn1)C1(c2ccnc(C(F)(F)F)c2)CCC1` [Example 240, (S)-pyridin-2-yl{1-[2-(trifluoromethyl)pyridin-4-yl]cyclobutyl}methanol] are 0.71 µM, 38% and 50%.
Regarding `OC(C1CCCc2cccnc21)C1(c2ccccc2OC(F)(F)F)CCC1` (stereo not drawn) [Example 192, (syn)-5,6,7,8-tetrahydroquinolin-8-yl{1-[2-(trifluoromethoxy)phenyl]-cyclobutyl}methanol], the IC50 on human TRPV3 (setting [3]) and at human TRPV3 (setting [4]) was over 20 µM throughout. Moreover, the “RAT MICROSOMAL STABILITY (% REMAINING AFTER 30 MINUTES)” value in series [1] is under 0.01%. The “HUMAN MICROSOMAL STABILITY (% REMAINING AFTER 30 MINUTES)” value in series [2] is reported as under 0.01%.
As to `CC1(O)CC(c2ccc(C(F)(F)F)cc2)(C(O)c2ccccn2)C1` (single isomer, unassigned) [Example 233], at human TRPV3 (setting [3]), the IC50 is 10.8 µM. In series [1], the “RAT MICROSOMAL STABILITY (% REMAINING AFTER 30 MINUTES)” value is on record as 67%. Moreover, in series [2], the “HUMAN MICROSOMAL STABILITY (% REMAINING AFTER 30 MINUTES)” value was over 85%.
Regarding `OC1CC(c2cc(C(F)(F)F)ccn2)([C@H](O)c2ccccn2)C1` (stereo partly drawn) [Example 294, 3-[(S)-hydroxy(pyridin-2-yl)methyl]-3-[4-(trifluoromethyl)pyridin-2-yl]-cyclobutanol], the 50% inhibitory concentration (IC50) at human TRPV3 (setting [3]) and on human TRPV3 (setting [4]) was over 20 µM throughout. The “RAT MICROSOMAL STABILITY (% REMAINING AFTER 30 MINUTES)” value in series [1] is over 85%. Besides, in series [2], the “HUMAN MICROSOMAL STABILITY (% REMAINING AFTER 30 MINUTES)” value is reported as over 85%.
For the compound `O=C1CC(c2cncc(C(F)(F)F)c2)([C@H](O)c2ccccn2)C1` [Example 296, 3-[(S)-hydroxy(pyridin-2-yl)methyl]-3-[5-(trifluoromethyl)pyridin-3-yl]-cyclobutanone], the IC50 at human TRPV3 (setting [3]) and at human TRPV3 (setting [4]) was over 20 µM each time. Further, in series [1], the “RAT MICROSOMAL STABILITY (% REMAINING AFTER 30 MINUTES)” value is recorded as 12%. In series [2], the “HUMAN MICROSOMAL STABILITY (% REMAINING AFTER 30 MINUTES)” value is on record as 67%.
In the case of `OC(c1ccccn1)C1(C2CCC(C(F)(F)F)CC2)CCC1` (stereo not shown) [Example 280, pyridin-2-yl{1-[4-(trifluoromethyl)cyclohexyl]cyclobutyl}methanol], on human TRPV3 (setting [3]), the IC50 was determined as 1.95 µM. Besides, the “RAT MICROSOMAL STABILITY (% REMAINING AFTER 30 MINUTES)” value in series [1] was under 0.01%. Moreover, in series [2], the “HUMAN MICROSOMAL STABILITY (% REMAINING AFTER 30 MINUTES)” value is recorded as 9.0%.
The corresponding values for `OC(c1ccccn1)C1(c2ccc(C(F)(F)F)cn2)CCC1` (stereo not shown) [Example 115, pyridin-2-yl{1-[5-(trifluoromethyl)pyridin-2-yl]cyclobutyl}methanol] are 19.4 µM, 81% and over 85%.
The corresponding values for `CC(=O)O[C@H](c1ccccn1)C1(c2ccc(OC(F)(F)F)cc2)CCC1` [Example 288, (S)-pyridin-2-yl{1-[4-(trifluoromethoxy)phenyl]cyclobutyl}methyl acetate] are 14.6 µM, under 0.01% and under 0.01%.
The corresponding values for `N[C@H]1CCC[C@H]1[C@@H](O)C1(c2ccccc2F)CCC1` [Example 226, (R)-[(1R,2S)-2-aminocyclopentyl][1-(2-fluorophenyl)cyclobutyl]methanol] are 0.79 µM, under 0.01% and over 85%.
Consider `OC(c1ccccn1)C1(c2nc3ccc(Cl)cc3o2)CCC1` (stereo not shown) [Example 301, [1-(6-chloro-1,3-benzoxazol-2-yl)cyclobutyl](pyridin-2-yl)methanol], for which the IC50 on human TRPV3 (setting [3]) came to 6.04 µM. Moreover, in series [1], the “RAT MICROSOMAL STABILITY (% REMAINING AFTER 30 MINUTES)” value is 22%. For the same compound, in series [2], the “HUMAN MICROSOMAL STABILITY (% REMAINING AFTER 30 MINUTES)” value was determined as 57%.
For the compound `OC(C1CCc2cccnc21)C1(c2cccc(C(F)(F)F)c2)CCC1` (stereo not drawn) [Example 185, (anti)-6,7-dihydro-5H-cyclopenta[b]pyridin-7-yl{1-[3-(trifluoromethyl)-phenyl]cyclobutyl}methanol], the IC50 at human TRPV3 (setting [3]) and on human TRPV3 (setting [4]) was over 20 µM in each case. Also, the “RAT […] (% REMAINING AFTER 30 MINUTES)” value in series [1] (rat liver microsomes (Sprague-Dawley), 0.5 μM substrate, 0.25 mg/mL microsomal protein, pH 7.4, 37° C., NADPH, 30 minutes) was under 0.01%. The “HUMAN […] (% REMAINING AFTER 30 MINUTES)” value in series [2] (human liver microsomes, 0.5 μM substrate, 0.25 mg/mL microsomal protein, pH 7.4, 37° C., NADPH, 30 minutes) worked out at 0.39%.
As for `O=C1CC(c2ccc(C(F)(F)F)cc2)([C@H](O)c2ccccn2)C1` (single isomer, unassigned) [Example 164], the IC50 on human TRPV3 (setting [3]) was 2.61 µM. Also, the “RAT MICROSOMAL STABILITY (% REMAINING AFTER 30 MINUTES)” value in series [1] is on record as 81%. Moreover, the “HUMAN MICROSOMAL STABILITY (% REMAINING AFTER 30 MINUTES)” value in series [2] is reported as 71%.
As for `OC(C1CCc2cccnc21)C1(c2ccc(C(F)(F)F)cc2)CCC1` (stereo not drawn) [Example 173, (anti)-6,7-dihydro-5H-cyclopenta[b]pyridin-7-yl{1-[4-(trifluoromethyl)-phenyl]cyclobutyl}methanol], the IC50 at human TRPV3 (setting [3]) and at human TRPV3 (setting [4]) was over 20 µM throughout. Also, the “RAT MICROSOMAL STABILITY (% REMAINING AFTER 30 MINUTES)” value in series [1] is under 0.01%. Moreover, the “HUMAN MICROSOMAL STABILITY (% REMAINING AFTER 30 MINUTES)” value in series [2] is 45%.
With `COC1CC(c2ccc(Cl)c(Cl)c2)(C(O)c2ccccn2)C1` [Example 150, (S)-[cis-1-(3,4-dichlorophenyl)-3-methoxycyclobutyl](pyridin-2-yl)-methanol], the IC50 at human TRPV3 (setting [3]) came to 1.69 µM. The “RAT MICROSOMAL STABILITY (% REMAINING AFTER 30 MINUTES)” value in series [1] was under 0.01%. In addition, the “HUMAN MICROSOMAL STABILITY (% REMAINING AFTER 30 MINUTES)” value in series [2] was 42%.
The corresponding values for `OC(c1ccccn1)C1(c2cncc(C(F)(F)F)c2)CCC1` (stereo not shown) [Example 110, pyridin-2-yl{1-[5-(trifluoromethyl)pyridin-3-yl]cyclobutyl}methanol] are 0.5 µM, 2.8% and 8.0%.
The corresponding values for `OC1CC(c2cncc(C(F)(F)F)c2)(C(O)c2ccccn2)C1` [Example 303, cis-3-[(S)-hydroxy(pyridin-2-yl)methyl]-3-[5-(trifluoromethyl)pyridin-3-yl]cyclobutanol] are 0.53 µM, 32% and 80%.
The corresponding values for `OC(c1ccccn1)C1(c2ccc(OC(F)(F)F)cc2)CCCO1` (single isomer, unassigned) [Example 94, (anti)-pyridin-2-yl{2-[4-(trifluoromethoxy)phenyl]tetrahydrofuran-2-yl}methanol] are 0.36 µM, 3.8% and 55%.
Consider `CC1(O)CC(c2ccc(OC(F)(F)F)cc2)(C(O)c2ncccn2)C1` [Example 310, trans-3-((S)-hydroxy(pyrimidin-2-yl)methyl)-1-methyl-3-(4-(trifluoromethoxy)phenyl)cyclobutanol], for which the IC50 at human TRPV3 (setting [3]) and at human TRPV3 (setting [4]) was over 20 µM each time. Moreover, the “RAT MICROSOMAL STABILITY (% REMAINING AFTER 30 MINUTES)” value in series [1] is reported as over 85%. The “HUMAN MICROSOMAL STABILITY (% REMAINING AFTER 30 MINUTES)” value in series [2] was over 85%.

One may read the IC50 as the midpoint of a concentration-inhibition curve.

Source of the values: US8772499B2, “TRPV3 modulators” (AbbVie Inc., priority 2011, dated 2014).
